We go through 15 compounds from patent US20210238184A1, “THERAPEUTIC COMPOUNDS” (Genentech, Inc., priority 2018, published 2021).

The target of assay [1] is TEAD2 YAP50-100 (Homo sapiens, UniProt Q15562). Kind of assay: TEAD2:YAP50-100 protein-protein interaction HTRF (TR-FRET) assay. The note with it: His-tagged TEAD YAP binding domain (aa 217-447), biotinylated YAP peptide aa 50-100; 30 min pre-incubation, 60 min at room temperature; read-out: TEAD2 YAP50-100 HTRF WuXi EC50. The method, then:
(§1) Purified His-tagged TEAD protein (YAP Binding Domain, amino acids 217-447) is pre-incubated with Europium labelled anti-His antibody tracer (Perkin Elmer Cat #AD0110). Small molecule Inhibitors are then incubated with the TEAD-Eu protein complex for 30 minutes to allow for binding to TEAD protein. Biotinylated YAP peptide (AA's 50-100) that has been pre-incubated with streptavidin x1665 acceptor (CIS-Bio Cat #610SAXAC) is added to the compound-TEAD mix. The TEAD-YAP-inhibitor mixture is then incubated for 60 minutes at room temperature. All reactions are carried out in a polystyrene plate. After 60 minutes, the plate is read on a plate reader using TR-FRET mode with wavelengths of 665 nm/615 nm. If YAP binds to TEAD as expected, a TR-FRET signal results from the proximity of YAP and TEAD after binding. If an inhibitor such as peptide 17 (Selleckchem Cat #S8164) interferes with YAP-TEAD binding, the disruption of the YAP:TEAD interaction results in a decrease in TR-FRET signal. The potency of compounds as YAP:TEAD protein-protein interaction (PPi) inhibitors is determined by an IC50 or EC50 value generated using a non-linear four parameter curve fit.

Assay [2] concerns the target TEAD3 YAP50-100 (Homo sapiens, UniProt Q99594). The experiment in a line: TEAD3:YAP50-100 protein-protein interaction HTRF (TR-FRET) assay. To be noted: His-tagged TEAD YAP binding domain (aa 217-447), biotinylated YAP peptide aa 50-100; 30 min pre-incubation, 60 min at room temperature; read-out: TEAD3 YAP50-100 HTRF WuXi EC50. The method, then:
as §1
(In general: TR-FRET usually uses a lanthanide donor and a delayed reading to cut background.)

Sequence of TEAD2 YAP50-100 (Q15562 217-447): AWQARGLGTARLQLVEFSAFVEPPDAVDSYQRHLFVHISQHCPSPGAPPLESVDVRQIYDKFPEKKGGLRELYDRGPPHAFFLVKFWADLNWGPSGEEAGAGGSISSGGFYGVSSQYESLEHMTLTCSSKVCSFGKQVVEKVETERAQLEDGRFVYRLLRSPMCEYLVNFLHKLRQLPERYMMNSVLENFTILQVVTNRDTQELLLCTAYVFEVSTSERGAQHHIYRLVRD
Sequence of TEAD3 YAP50-100 (Q99594 216-435 limits assumed): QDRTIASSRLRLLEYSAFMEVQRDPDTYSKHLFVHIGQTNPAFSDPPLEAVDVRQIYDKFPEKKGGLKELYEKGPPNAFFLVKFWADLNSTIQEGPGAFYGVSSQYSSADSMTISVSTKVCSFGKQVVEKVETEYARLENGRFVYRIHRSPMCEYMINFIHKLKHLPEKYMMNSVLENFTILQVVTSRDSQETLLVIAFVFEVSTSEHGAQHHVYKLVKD

With `O=C(c1cnn2c(=O)cc(-c3ccc(C4CCCCC4)cc3)[nH]c12)N1CC(F)(F)C1` [Example 12, 5-(4-Cyclohexylphenyl)-3-(3,3-difluoroazetidine-1-carbonyl)pyrazolo[1,5-a]pyrimidin-7(4H)-one], the results for the 50% effective concentration (EC50) in assay [1] and in assay [2] were 0.068 µM and 0.056 µM, respectively.
`CCOC(=O)c1cnn2c(=O)cc(-c3ccc(C4(c5ccccc5)CC4)cc3)[nH]c12` [Example 33, Ethyl 7-oxo-5-(4-(1-phenylcyclopropyl)phenyl)-4,7-dihydropyrazolo[1,5-a]pyrimidine-3-carboxylate]: the results for the EC50 in assay [1] and in assay [2] were 2.19 µM and 0.765 µM, respectively.
For `CCOC(=O)c1cnn2c(=O)cc(-c3ccc(C(F)(F)F)c(C)c3)[nH]c12` [Example 26, Ethyl 5-(3-methyl-4-(trifluoromethyl)phenyl)-7-oxo-4,7-dihydropyrazolo[1,5-a]pyrimidine-3-carboxylate], in that order: 0.956 µM and 1.41 µM.
For `O=C(c1cnn2c(=O)cc(-c3ccc(C4CCCCC4)cc3)[nH]c12)N1CC(C(F)(F)F)C1` [Example 39, 5-(4-Cyclohexylphenyl)-3-(3-(trifluoromethyl)azetidine-1-carbonyl)pyrazolo[1,5-a]pyrimidin-7(4H)-one], in that order: 0.295 µM and 0.405 µM.
For `CCOC(=O)c1cnn2c(=O)cc(-c3ccc(N(C)CC4CC4)cc3)[nH]c12` [Example 32, Ethyl 5-(4-((cyclopropylmethyl)(methyl)amino)phenyl)-7-oxo-4,7-dihydro pyrazolo[1,5-a]pyrimidine-3-carboxylate], in that order: 3.7 µM and 0.175 µM.
On to `O=C(c1cnn2c(=O)cc(-c3ccc(C4CCCCC4)cc3)[nH]c12)N1CC(CF)C1` [Example 41, 5-(4-Cyclohexylphenyl)-3-(3-(fluoromethyl)azetidine-1-carbonyl)pyrazolo[1,5-a]pyrimidin-7(4H)-one], for which the concentration giving a half-maximal response (EC50) – broadly, the concentration that produces a half-maximal response – was 0.0045 µM in assay [1] and 0.01 µM in assay [2].
For `O=C(c1cnn2c(=O)cc(-c3ccc(-c4ccccc4)cc3)[nH]c12)N1CCC1` [Example 35, 5-([1,1′-Biphenyl]-4-yl)-3-(azetidine-1-carbonyl)pyrazolo[1,5-a]pyrimidin-7(4H)-one], in that order: 1.63 µM and 0.095 µM.
As for `O=C(c1cnn2c(=O)cc(-c3ccc(C4CCCCC4)cc3)[nH]c12)N1CCC(F)(F)C1` [Example 42, 5-(4-Cyclohexylphenyl)-3-(3,3-difluoropyrrolidine-1-carbonyl)pyrazolo[1,5-a]pyrimidin-7(4H)-one], the concentration giving a half-maximal response (EC50) is 0.0145 µM in assay [1] and 0.0395 µM in assay [2].
On the same counts, the results for `CCOC(=O)c1cnn2c(=O)cc(-c3ccc(OC(C)C)cc3)[nH]c12` [Example 31, Ethyl 5-(4-isopropoxyphenyl)-7-oxo-4,7-dihydropyrazolo[1,5-a]pyrimidine-3-carboxylate] are 4.04 µM and 0.944 µM.
On the same counts, the results for `CN(CCO)C(=O)c1cnn2c(=O)cc(-c3ccc(C4CCCCC4)cc3)[nH]c12` [Example 5, 5-(4-cyclohexylphenyl)-N-(2-hydroxyethyl)-N-methyl-7-oxo-4,7-dihydropyrazolo[1,5-a]pyrimidine-3-carboxamide] are 1.1 µM and 0.567 µM.
Take `CN(C)C(=O)c1cnn2c(=O)cc(-c3ccc(Oc4ccccc4)cc3)[nH]c12` [Example 16, /VA-Dimethyl-7-oxo-5-(4-phenoxyphenyl)-4,7-dihydropyrazolo[1,5-a]pyrimidine-3-carboxamide]: the concentration for a half-maximal effect (EC50) in assay [1] came out at 0.501 µM; in assay [2], 1.11 µM.
For `CC1(O)CN(C(=O)c2cnn3c(=O)cc(-c4ccc(C5CCCCC5)cc4)[nH]c23)C1` [Example 9, 5-(4-Cyclohexylphenyl)-3-(3-hydroxy-3-methylazetidine-1-carbonyl)pyrazolo[1,5-a]pyrimidin-7(4H)-one], in that order: 0.333 µM and 1.3 µM.
For `CCOC(=O)c1cnn2c(=O)cc(-c3ccc(C4CCCCC4)cc3)[nH]c12` [Example 4, Ethyl 5-(4-cyclohexylphenyl)-7-oxo-4,7-dihydropyrazolo[1,5-a]pyrimidine-3-carboxylate], in that order: 0.066 µM and 0.019 µM.
For `CCOC(=O)c1cnn2c(=O)cc(-c3ccc(C4CCC(F)(F)CC4)cc3)[nH]c12` [Example 1, Ethyl 5-(4-(4,4-difluorocyclohexyl)phenyl)-7-oxo-4,7-dihydropyrazolo[1,5-a]pyrimidine-3-carboxylate], in that order: 0.263 µM and 0.041 µM.
For `CCOC(=O)c1cnn2c(=O)cc(-c3ccc(-c4ccccc4)cc3)[nH]c12` [Example 34, Ethyl 5-([1,1^1-biphenyl]-4-yl)-7-oxo-4,7-dihydropyrazolo[1,5-a]pyrimidine-3-carboxylate], the results for the half-maximal effective concentration (EC50) in assay [1] and in assay [2] were 1.03 µM and 0.041 µM, respectively.
